Results as given in ChEMBL document CHEMBL4715898, “Synthesis and structure-activity relationships of pyrimidine derivatives as potent and orally active FGFR3 inhibitors with both increased systemic exposure and enhanced in vitro potency” (Bioorg Med Chem, 2021).
In brackets after ≈: the same amount, converted by molar mass.

Legend:
cells = conditions: Homo sapiens, NIH3T3, 120 h
in vitro = conditions: PAMPA, pH 7.4
physchem [1] = conditions: JP2 fluid, pH 6.8
physchem [2] = conditions: buffer, pH 7.4
[3] = mouse, in vivo, po, 30 mg/kg, 0.75 h
in vivo = conditions: ICR, mouse, plasma, po, 30 mg/kg
animal or person = conditions: Mus musculus, Balb/c, NIH3T3, po, 6 h, read-out: INH

| SMILES | IC50 (cells) [nM] | Papp at 2 h (in vitro) [×10⁻⁶ cm/s] | solubility at 20 h, 10000 µM (physchem [1]) [µM] | logD (physchem [2]) | CL [3] [mL/min/kg] | concentration at 6 h (in vivo) [nM] | inhibition in vivo at 30 mg/kg (animal or person) [%] |
| --- | --- | --- | --- | --- | --- | --- | --- |
| CCNS(=O)(=O)c1ccccc1Nc1nc(Nc2ccc(N3CCC(N4CCN(C)CC4)CC3)c(OC)c2)ncc1CCc1cc(OC)cc(OC)c1 | 34 | 1.8 | < 1 | > 4.8 |  |  |  |
| CCNS(=O)(=O)c1ccccc1Nc1nc(Nc2ccc(N3CCC(N4CCN(C)CC4)CC3)c(OC)c2)ncc1NC(=O)c1cc(OC)cc(OC)c1 | 99 | 1.4 | < 1 | > 3.9 | > 600 | 98.2 |  |
| COc1cc(Nc2ncc(CCc3c(F)c(OC)cc(OC)c3Cl)cn2)ccc1N1CCC(N2CCN(C)CC2)CC1 |  | 19.4 | 12 (≈ 7.19 µg/mL) | 3.5 |  |  |  |
| COc1cc(Nc2ncc(CCc3c(Cl)c(OC)cc(OC)c3Cl)cn2)ccc1N1CCC(N2CCN(C)CC2)CC1 |  | 18.7 | 5 (≈ 3.08 µg/mL) | 4.4 |  |  |  |
| COc1cc(OC)cc(C(=O)Nc2cnc(Nc3ccc(N4CCC(N5CCN(C)CC5)CC4)c(OC)c3)nc2NCCS(C)(=O)=O)c1 |  | < 0.2 | ≥ 100 | 1.8 |  |  |  |
| COc1cc(CCc2cnc(Nc3ccc(N4CCC(N5CCN(C)CC5)CC4)c(OC)c3)nc2)c(F)c(OC)c1 |  | 24.4 | ≥ 100 | 3.2 |  |  |  |
| COc1cc(OC)cc(C(=O)Nc2cnc(Nc3ccc(N4CCC(N5CCN(C)CC5)CC4)c(OC)c3)nc2Nc2ccccc2)c1 |  | 0.4 | 36 (≈ 23.5 µg/mL) | 3.7 |  |  |  |

Second part, led by results:

| IC50 (cells) [nM] | Papp at 2 h (in vitro) [×10⁻⁶ cm/s] | solubility at 20 h, 10000 µM (physchem [1]) [µM] | logD (physchem [2]) | CL [3] [mL/min/kg] | concentration at 6 h (in vivo) [nM] | SMILES | inhibition in vivo at 30 mg/kg (animal or person) [%] |
| --- | --- | --- | --- | --- | --- | --- | --- |
|  | 18.5 | ≥ 100 | 3.2 |  |  | COc1cc(COc2cnc(Nc3ccc(N4CCC(N5CCN(C)CC5)CC4)c(OC)c3)nc2)cc(OC)c1 |  |
|  | 15.1 | ≥ 100 | 3.5 | 227 | 1120 | COc1cc(CCc2cnc(Nc3ccc(N4CCC(N5CCN(C)CC5)CC4)c(OC)c3)nc2)cc(OC)c1 | 21 |
|  | > 30 | ≥ 100 | 3.4 |  |  | COc1cc(OC)cc(OCc2cnc(Nc3ccc(N4CCC(N5CCN(C)CC5)CC4)c(OC)c3)nc2)c1 |  |
|  | 18.1 | ≥ 100 | 2.9 |  |  | COc1cc(CNc2cnc(Nc3ccc(N4CCC(N5CCN(C)CC5)CC4)c(OC)c3)nc2)cc(OC)c1 |  |
|  | 3.7 | ≥ 100 | 1.8 |  |  | COc1cc(OC)cc(C(=O)N(C)c2cnc(Nc3ccc(N4CCC(N5CCN(C)CC5)CC4)c(OC)c3)nc2)c1 |  |
|  | < 2.9 | ≥ 100 | 2.8 |  |  | COc1cc(OC)cc(C(=O)Nc2cnc(Nc3ccc(N4CCC(N5CCN(C)CC5)CC4)c(OC)c3)nc2)c1 |  |
